Measured values as given in patent publication US7235577B1 (priority 2000, dated 2007).

Legend:
ten cell lines = experiment: In vitro toxicity, summary over the ten cell lines; details: at a concentration 100–250 times the Kd for IKCa1 channel block
Procedure: The in vitro toxicity was performed as follows. Jurkat E6-1, MEL, C2F3, NGP, NLF cells and human T-lymphocytes were seeded at 5×10^5 cells/ml, and L929, COS-7, CHO and RBL cells were seeded at 10^5 cells/ml in twelve-well plates. Drug (2 or 5 μM) was added in a final DMSO concentration of 0.1%. After 48 h of incubation at 37° C. with 5% CO2, cells were harvested by sucking them off the plates (suspension cells) or by trypsinization (adherent cell lines). Cells were centrifuged, resuspended in 0.5 ml PBS containing 1 μg/ml propidium iodide (PI), and red fluorescence measured on a FACScan flow cytometer after 20 min, 10^4 cells of every sample being analyzed. The percentage of dead cells was determined by their PI uptake. Two controls for every cell line (one in medium and one with 0.1% DMSO) were also analyzed.

[1] = molecular target: human cytochrome P450 3A4 (CYP3A4) (Homo sapiens, UniProt P08684); experiment: in vitro
Procedure: (§1) The test substances shown in Table 8 were evaluated for their inhibitory effect on the catalytic activity of human cytochrome P450 enzyme. Cytochrome P450 3A4 (CYP3A4) is involved in many drug-drug interactions and in many other pathways in the body including the catabolism of steroids and xenobiotics. Inhibition of this enzyme was measured in 96 well plates with 7-benzyloxy-4-trifluoro-methylcoumarin (BFC) as the substrate and cDNA-derived enzymes in microsomes prepared from baculovirus-infected insect cells.
(§2) The inhibition study consisted of the determination of inhibition by the test substance on CYP3A4 catalytic activity. […] The compounds were prepared as 10 mM stock solutions in acetonitrile. Metabolism of the model substrate was assayed by the production of 7-hydroxy-4-trifluoromethylcoumarin metabolite. The metabolite was detected by fluorescence.
(§3) Table 10 below provides a list of the name of enzymes examined, the catalog number of the microsomes used as a source of the enzyme, the concentration of the model substrate used, the amount of enzyme used, the final buffer concentration, and the positive control compound.
(§4) Assays were conducted in 96 well microtiter plates. The BFC substrate was initially prepared in acetonitrile. […] Six wells were used for one test. […] For the positive controls, 12 wells in a row were used for one test. The positive control inhibitor/enzyme combination was examined in duplicate rows. Wells 1 to 8 contained serial 1:3 dilutions of the inhibitors. The highest inhibitor concentration were as described in the table above. Wells 9 and 10 contained no inhibitor and wells 11 and 12 were blanks for background fluorescence (stop solution added before the enzyme).
(§5) After buffer, cofactors and inhibitor addition, the plates were pre-warmed to 37° C. Incubations were initiated by the addition of pre-warmed enzyme and substrate. The final cofactor concentrations were 1.3 mM NADP, 3.3 mM glucose-6-phosphate and 0.4 U/ml glucose-6-phosphate dehydrogenase. The final incubation volume was 0.2 ml. Incubations were carried out for 30 minutes [CYP3A4 (BFC)] and stopped by the addition of 0.075 ml of 80% acetonitrile-20% 0.5M Tris. Fluorescence per well was measured using a BMG FLUOstar fluorescence plate reader. The BFC metabolite 7-hydroxy-4-trifluoromethyl-coumarin was measured using an excitation wavelength of 410 nm and emission wavelength of 538 nm.

CYP3A4 = CYP3A4 (Homo sapiens, UniProt P08684); experiment: in vitro; details: human
Chain of CYP3A4 (P08684 whole entry): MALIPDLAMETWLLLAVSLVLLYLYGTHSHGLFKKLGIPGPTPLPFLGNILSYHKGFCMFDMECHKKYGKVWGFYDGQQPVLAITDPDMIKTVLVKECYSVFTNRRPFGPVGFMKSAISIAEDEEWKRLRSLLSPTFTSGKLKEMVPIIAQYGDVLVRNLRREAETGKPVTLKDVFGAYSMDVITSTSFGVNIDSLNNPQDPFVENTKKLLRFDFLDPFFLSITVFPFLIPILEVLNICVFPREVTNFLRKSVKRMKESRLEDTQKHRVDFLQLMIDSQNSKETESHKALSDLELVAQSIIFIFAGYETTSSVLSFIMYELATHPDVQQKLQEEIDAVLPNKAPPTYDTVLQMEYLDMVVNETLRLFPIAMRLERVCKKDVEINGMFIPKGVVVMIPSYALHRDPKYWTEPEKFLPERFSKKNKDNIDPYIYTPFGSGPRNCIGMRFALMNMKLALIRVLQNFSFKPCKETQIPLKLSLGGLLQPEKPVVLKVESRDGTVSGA
Procedure: as §1, §2, §3, §4, §5

COS-7 chloride channel = experiment: Selectivity patch clamp, native chloride channels in COS-7 cells; assay type: cell-based, African green monkey; details: native chloride channel of COS-7 cells
Procedure: Electrophysiological experiments were carried out in the whole-cell configuration of the patch-clamp technique using an EPC-9 amplifier (HEKA Elektronik, Lambrecht Germany) interfaced to a computer running acquisition and analysis software (Pulse and Pulsfit; HEKA Elektronik). Pipettes were pulled from soft glass capillaries, coated with Sylgard (Dow-Corning, Midland, Mich.), and fire polished to resistances of 2.0–4.5 MΩ measured in the bath. COS-7 cells were trypsinized and plated on glass coverslips 3 h before measurement. […] To prevent activation of the native chloride channels in COS-7 cells an aspartate Ringer solution was used as an external solution (160 mM Na^+ aspartate, 4.5 mM KCl, 2 mM CaCl2, 1 mM MgCl2, 5 mM HEPES, adjusted to pH 7.4 with NaOH, with an osmolarity of 290–310 mosM). 200 ms voltage ramps from −120 mV to 40 mV every 10 s were used. The holding potential in all experiments was −80 mV. Series resistance compensation was not employed. The reduction of slope conductance at −80 mV was used to determine the Kd-value by fitting the values to the Hill equation with a Hill coefficient of unity.
(§6) Recordings from the Jurkat SKCa channel were made in K^+ aspartate Ringer (Na^+ was replaced by K^+) with the same internal pipette solution. […]

CHO cells = experiment: In vitro toxicity, propidium iodide uptake, 48 h; assay type: cell-based, Chinese hamster
Procedure: (§7) The in vitro toxicity was performed as follows.

NLF cells = experiment: In vitro toxicity, propidium iodide uptake, 48 h; assay type: cell-based, human
Procedure: as §7

C2F3 cells = experiment: In vitro toxicity, propidium iodide uptake, 48 h; assay type: cell-based, human
Procedure: as §7

Jurkat-SK = molecular target: T1, Jurkat-SK (Homo sapiens, UniProt Q9H2S1); experiment: Selectivity patch clamp, Jurkat SKCa channel; assay type: cell-based
T1 construct: endogenous in cells; host or cells: Jurkat E6-1
T1 sequence (Q9H2S1 whole entry): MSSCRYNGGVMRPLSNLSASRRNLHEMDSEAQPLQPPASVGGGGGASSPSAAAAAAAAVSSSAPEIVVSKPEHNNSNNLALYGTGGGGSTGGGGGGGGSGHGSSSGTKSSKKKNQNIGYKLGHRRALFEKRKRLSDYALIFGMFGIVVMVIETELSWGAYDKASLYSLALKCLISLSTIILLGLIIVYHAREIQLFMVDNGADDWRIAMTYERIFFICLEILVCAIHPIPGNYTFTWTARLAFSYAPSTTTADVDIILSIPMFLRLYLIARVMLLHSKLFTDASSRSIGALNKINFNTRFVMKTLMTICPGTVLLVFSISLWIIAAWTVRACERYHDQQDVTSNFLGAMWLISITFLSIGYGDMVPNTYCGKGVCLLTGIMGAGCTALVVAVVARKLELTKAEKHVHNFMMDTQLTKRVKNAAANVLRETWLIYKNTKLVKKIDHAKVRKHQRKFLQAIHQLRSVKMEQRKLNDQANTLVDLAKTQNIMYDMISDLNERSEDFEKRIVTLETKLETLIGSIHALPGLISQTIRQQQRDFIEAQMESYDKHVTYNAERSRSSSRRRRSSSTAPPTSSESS
Procedure: (§8) L929 cells stably expressing mKv1.1, rKv1.2, mKv1.3, and mKv3.1 and MEL cells stably expressing hKv1.5 have been previously described (Grissmer 1994, Mol. Pharmacol. 45: 1227). hKv1.4 and rKv4.2 were stably expressed in LTK (HK1–7). Channel expression was induced 8–12 h before the electrophysiological experiments by 4 μM dexamethasone (Sigma). HEK-293 cells stably expressing the skeletal muscle sodium channel hSkM1 (SCN4A) were generated in the laboratory of Dr. F. Lehmann-Horn. HEK-293 cells stably expressing hSloα were obtained from Dr. Andrew Tinker (Center for Clinical Pharmacology, University College London). L929, MEL, LTK and HEK cells were maintained in DMEM containing 10% heat-inactivated fetal calf serum (Summit Biotechnology, Fort Collins, Colo.) and 250 μg/ml G418 (Life Technologies, Inc.). Rat basophilic leukemia (RBL) cells were maintained in Eagle's minimum essential medium with 2 mM L-glutamine and 10% fetal calf serum. CHO cell were maintained in F12K media (ATCC). Human leukemic Jurkat E6–1 cells were cultured in RPMI 1640 supplemented with 10% fetal calf serum and 1 mM L-glutamine. T84 cells were maintained in a 1:1 mixture of Ham's F12 medium and DMEM with 2.5 mM L-glutamine and 10% fetal calf serum.
as §6

hKv1.4 = molecular target: T2, hKv1.4 (Homo sapiens, UniProt P22459); experiment: Selectivity patch clamp, LTK cells expressing hKv1.4; assay type: cell-based
T2 construct: expressed in transfected cells; host or cells: LTK (dexamethasone-induced)
T2 sequence (P22459 whole entry): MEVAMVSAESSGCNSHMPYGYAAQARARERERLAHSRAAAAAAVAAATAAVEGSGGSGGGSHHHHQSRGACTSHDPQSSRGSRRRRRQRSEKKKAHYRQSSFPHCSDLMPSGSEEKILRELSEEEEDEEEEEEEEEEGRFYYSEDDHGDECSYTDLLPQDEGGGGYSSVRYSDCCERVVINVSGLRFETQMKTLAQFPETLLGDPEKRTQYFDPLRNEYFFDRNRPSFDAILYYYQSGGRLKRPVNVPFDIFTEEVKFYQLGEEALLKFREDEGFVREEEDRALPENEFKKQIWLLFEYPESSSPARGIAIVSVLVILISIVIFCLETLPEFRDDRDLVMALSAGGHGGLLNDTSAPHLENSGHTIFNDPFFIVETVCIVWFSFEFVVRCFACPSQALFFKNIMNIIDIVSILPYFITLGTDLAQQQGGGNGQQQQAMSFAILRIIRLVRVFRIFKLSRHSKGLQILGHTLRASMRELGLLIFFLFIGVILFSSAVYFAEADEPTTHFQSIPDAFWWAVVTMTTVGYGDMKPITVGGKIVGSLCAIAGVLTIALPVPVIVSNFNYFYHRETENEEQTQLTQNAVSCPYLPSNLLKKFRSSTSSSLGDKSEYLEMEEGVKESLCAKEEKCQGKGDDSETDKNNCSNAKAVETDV
Procedure: as §8, §6

Chain of human cytochrome P450 3A4 (CYP3A4) (P08684 whole entry): as the sequence (P08684 whole entry) above

SMILES: Clc1ccccc1C(c1ccccc1)(c1ccccc1)n1cccn1 [Compound T34, 1-[(2-Chlorophenyl)diphenylmethyl]-1H-pyrazole]
- cell viability in the ten cell lines examined (ten cell lines): did not reduce cell viability
- EC50 for inhibition of CYP3A4 ([1]; T34 tested up to 10 μM): No inhibitory
- Inhibition of CYP3A4 activity ([1]; up to 10 μM): does not inhibit the activity of CYP3A4
- inhibition at 30 min, 10 μM (CYP3A4): -77.5%
- Block of COS-7 (Cl) (COS-7 chloride channel): no effect at 10 μM
- percentage of dead cells (PI uptake) (CHO cells; 2 μM): 5.6%
- percentage of dead cells (PI uptake) (CHO cells; 5 μM): 4.7%
- percentage of dead cells (PI uptake) (NLF cells; 2 μM): 10.8%
- percentage of dead cells (PI uptake) (NLF cells; 5 μM): 10.8%
- percentage of dead cells (PI uptake) (C2F3 cells; 2 μM): 15.8%
- percentage of dead cells (PI uptake) (C2F3 cells; 5 μM): 12.8%
- Kd (Jurkat-SK): 23 ± 2 µM
- Kd (hKv1.4): 7.5 ± 0.41 µM
